Data on 15 molecules can be found in patent US20240343733A1, “COMPOUNDS FOR TARGETING DEGRADATION OF IRAK4 PROTEINS” (BIOGEN MA INC., priority 2021, published 2024).

The term DC50 denotes the midpoint of the concentration-degradation curve. Lower therefore signals a more potent degrader.

For assay [1], the target named is T1, IRAK4 (Homo sapiens, UniProt Q9NWZ3).
T1 construct: 293Tcells expressing HiBiT-tagged IRAK4 were then added into 384-well plates
T1 sequence (Q9NWZ3 1-460): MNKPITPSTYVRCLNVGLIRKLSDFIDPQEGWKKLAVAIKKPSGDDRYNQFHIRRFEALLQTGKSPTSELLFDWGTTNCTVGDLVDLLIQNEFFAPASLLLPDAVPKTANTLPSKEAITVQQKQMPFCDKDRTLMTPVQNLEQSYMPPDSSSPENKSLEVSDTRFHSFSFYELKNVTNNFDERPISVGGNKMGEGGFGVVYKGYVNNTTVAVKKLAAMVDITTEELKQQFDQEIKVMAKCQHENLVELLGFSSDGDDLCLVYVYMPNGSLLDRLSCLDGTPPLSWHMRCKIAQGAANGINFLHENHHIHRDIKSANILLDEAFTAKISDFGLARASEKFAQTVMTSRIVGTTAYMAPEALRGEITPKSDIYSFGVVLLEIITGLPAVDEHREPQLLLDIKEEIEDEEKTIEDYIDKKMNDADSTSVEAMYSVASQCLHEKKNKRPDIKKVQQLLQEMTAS
In words: IRAK4 Degradation Assay, HiBiT Method. Type of assay: cell-based. To be noted: 293T cells expressing HiBiT-tagged IRAK4, 6 hours. The method in brief:
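293T cells with HiBiT knocked in at the C-terminus of endogenous IRAK4, 10,000 per well, treated 6 h at 37 °C with an 11-point half-log series ([…]), in duplicate. Remaining IRAK4 read by Nano-Glo HiBiT lytic luminescence against DMSO-only and media-only controls.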

In assay [2] the target is T2, IKZF1 (Homo sapiens, UniProt Q13422).
T2 construct: endogenously expressing IKZF1 with HiBiT fusion tag via CRISPR
In words: IKZF1 Degradation Assay, HiBiT Method. Type of assay: cell-based. To be noted: NCIH929 cells expressing HiBiT-tagged IKZF1, 6 hours, top concentration 10 μM. The method, then: Assay 2. IKZF1 Degradation Assay, HiBiT Method
Selected compounds of this disclosure were tested in an IKZF1 degradation assay using the HiBiT Method.
RPMI no-phenol red medium and fetal bovine serum (FBS) were purchased from Gibco (Grand Island, NY, USA). Nano-Glo® HiBiT Lytic Assay System was purchased from Promega (Madison, WI, USA). […] Cell culture flasks and 384-well microplates were acquired from VWR (Radnor, PA, USA).
IKZF1 degradation was determined based on quantification of luminescent signal using Nano-Glo® HiBiT Lytic Assay kit. […] NCIH929 cells expressing HiBiT-tagged IKZF1 were added into 384-well plates in RPMI medium containing 10% FBS and 0.05 mM 2-mercaptoethanol at a cell density of 15000 cells per well. The plates were kept at 37° C. with 5% CO2 for 6 hours. Cells treated in the absence of the test compound were the negative control and wells containing media only were the positive control. After 6-hour incubation, Nano-Glo® HiBiT Lytic Assay reagents were added to the designated wells. Luminescence was acquired on EnVision® Multilabel Reader (PerkinElmer, Santa Clara, CA, USA).

T2 sequence (Q96SW2 whole entry partner, the tested form may be a part): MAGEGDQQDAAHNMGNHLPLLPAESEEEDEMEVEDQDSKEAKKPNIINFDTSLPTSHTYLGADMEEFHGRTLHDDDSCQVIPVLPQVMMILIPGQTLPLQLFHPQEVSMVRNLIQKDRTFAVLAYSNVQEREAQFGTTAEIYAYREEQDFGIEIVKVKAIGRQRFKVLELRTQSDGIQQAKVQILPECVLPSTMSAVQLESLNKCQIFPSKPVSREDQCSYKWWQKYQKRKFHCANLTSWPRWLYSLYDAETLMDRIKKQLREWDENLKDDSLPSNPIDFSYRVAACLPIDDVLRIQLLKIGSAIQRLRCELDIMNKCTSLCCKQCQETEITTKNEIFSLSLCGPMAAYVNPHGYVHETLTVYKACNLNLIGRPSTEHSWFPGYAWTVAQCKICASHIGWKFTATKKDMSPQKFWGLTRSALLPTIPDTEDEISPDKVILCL
T2 sequence (Q16531 whole entry partner, the tested form may be a part): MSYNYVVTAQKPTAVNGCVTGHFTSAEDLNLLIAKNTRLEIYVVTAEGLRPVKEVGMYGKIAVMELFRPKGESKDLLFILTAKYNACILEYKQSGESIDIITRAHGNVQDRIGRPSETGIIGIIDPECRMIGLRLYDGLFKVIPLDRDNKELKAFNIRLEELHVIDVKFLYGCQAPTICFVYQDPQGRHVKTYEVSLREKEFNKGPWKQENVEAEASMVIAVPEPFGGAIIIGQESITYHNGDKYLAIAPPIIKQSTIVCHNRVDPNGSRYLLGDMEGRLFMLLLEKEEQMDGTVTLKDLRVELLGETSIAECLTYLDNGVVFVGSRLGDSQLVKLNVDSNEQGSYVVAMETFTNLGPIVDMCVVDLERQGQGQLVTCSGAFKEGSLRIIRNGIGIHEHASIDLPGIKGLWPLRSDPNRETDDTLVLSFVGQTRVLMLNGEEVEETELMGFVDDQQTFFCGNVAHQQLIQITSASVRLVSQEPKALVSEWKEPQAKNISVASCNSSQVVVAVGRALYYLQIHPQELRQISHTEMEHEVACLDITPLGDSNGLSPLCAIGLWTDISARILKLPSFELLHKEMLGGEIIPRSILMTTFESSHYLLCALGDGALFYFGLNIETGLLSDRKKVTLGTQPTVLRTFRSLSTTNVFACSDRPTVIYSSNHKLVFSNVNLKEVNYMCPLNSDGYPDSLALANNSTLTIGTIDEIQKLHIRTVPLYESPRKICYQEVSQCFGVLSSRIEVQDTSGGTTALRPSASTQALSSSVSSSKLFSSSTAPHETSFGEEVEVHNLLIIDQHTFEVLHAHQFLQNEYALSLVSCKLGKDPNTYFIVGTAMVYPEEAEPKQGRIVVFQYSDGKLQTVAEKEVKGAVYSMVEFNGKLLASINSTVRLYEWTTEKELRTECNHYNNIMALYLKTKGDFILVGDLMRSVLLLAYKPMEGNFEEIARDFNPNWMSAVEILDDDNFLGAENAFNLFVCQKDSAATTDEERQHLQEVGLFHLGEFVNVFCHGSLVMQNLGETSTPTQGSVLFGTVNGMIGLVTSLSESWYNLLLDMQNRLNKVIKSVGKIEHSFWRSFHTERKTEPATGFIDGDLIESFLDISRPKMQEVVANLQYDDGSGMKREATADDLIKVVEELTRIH
T2 sequence (Q13422 whole entry, the tested form may be a part): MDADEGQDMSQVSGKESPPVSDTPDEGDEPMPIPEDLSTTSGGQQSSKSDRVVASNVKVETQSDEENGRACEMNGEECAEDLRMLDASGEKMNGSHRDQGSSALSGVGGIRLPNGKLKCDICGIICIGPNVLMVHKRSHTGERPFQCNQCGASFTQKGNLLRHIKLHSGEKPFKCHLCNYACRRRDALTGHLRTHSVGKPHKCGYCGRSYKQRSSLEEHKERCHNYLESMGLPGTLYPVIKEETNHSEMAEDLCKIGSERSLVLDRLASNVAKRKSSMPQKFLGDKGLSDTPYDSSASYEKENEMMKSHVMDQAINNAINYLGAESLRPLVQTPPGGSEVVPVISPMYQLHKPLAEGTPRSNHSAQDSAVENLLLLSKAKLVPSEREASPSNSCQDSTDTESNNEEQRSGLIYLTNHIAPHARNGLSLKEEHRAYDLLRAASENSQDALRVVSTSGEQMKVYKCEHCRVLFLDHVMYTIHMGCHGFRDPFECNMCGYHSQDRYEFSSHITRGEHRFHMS

Turning to `CC(C)Oc1cc2nc(C3CCN(CC(=O)N4CCC(c5ccc(NC6CCC(=O)NC6=O)cc5)CC4)CC3)cn2cc1C(=O)Nc1ccn(C)n1` (stereo not drawn) [Example 108, 2-[1-[2-[4-[4-[(2,6-dioxo-3-piperidyl)amino]phenyl]-1-piperidyl]-2-oxo-ethyl]-4-piperidyl]-7-isopropoxy-N-(1-methylpyrazol-3-yl)imidazo[1,2-a]pyridine-6-carboxamide], the results for the DC50 in assay [1] and in assay [2] were 10 to 100 nM and greater than 10000 nM, respectively.

As to `CC(C)Oc1cc2nn([C@H]3CC[C@H](CN4CCC(c5ccc(OC6CCC(=O)NC6=O)cc5)CC4)CC3)cc2cc1C(=O)Nc1cccn(C2CC2)c1=O` (stereo partly drawn) [Example 113, N-(1-cyclopropyl-2-oxo-1,2-dihydropyridin-3-yl)-2-((1r,4r)-4-((4-(4-((2,6-dioxopiperidin-3-yl)oxy)phenyl)piperidin-1-yl)methyl)cyclohexyl)-6-isopropoxy-2H-indazole-5-carboxamide], the results for the DC50 in assay [1] and in assay [2] were less than 10 nM and greater than 10000 nM, respectively.

Take `Cc1cnc2c(NC(=O)c3cc4cn([C@H]5CC[C@H](CN6CCC(c7ccc(C8CCC(=O)NC8=O)cc7F)CC6)CC5)nc4cc3OC(C)C)cnn2c1` (stereo partly drawn) [Example 114, 2-((1r,4r)-4-((4-(4-(2,6-dioxopiperidin-3-yl)-2-fluorophenyl)piperidin-1-yl)methyl)cyclohexyl)-6-isopropoxy-N-(6-methylpyrazolo[1,5-a]pyrimidin-3-yl)-2H-indazole-5-carboxamide]: the values for the DC50 in assay [1] and in assay [2] were 10 to 100 nM and greater than 10000 nM, respectively.

In the case of `CC(C)Oc1cc2nn([C@H]3CC[C@H](CN4CCC(c5ccc(OC6CCC(=O)NC6=O)cc5)CC4)CC3)cc2cc1C(=O)Nc1cnn2cccnc12` (stereo partly drawn) [Example 115, 2-((1r,4r)-4-((4-(4-((2,6-dioxopiperidin-3-yl)oxy)phenyl)piperidin-1-yl)methyl)cyclohexyl)-6-isopropoxy-N-(pyrazolo[1,5-a]pyrimidin-3-yl)-2H-indazole-5-carboxamide], the DC50 was less than 10 nM in assay [1] and greater than 10000 nM in assay [2].

As to `CC(C)Oc1cc2nn([C@H]3CC[C@H](CN4CCN(c5ccc(C6CCC(=O)NC6=O)cn5)CC(O)C4)CC3)cc2cc1C(=O)Nc1cccn([C@H]2C[C@H]2F)c1=O` (stereo partly drawn) [Example 120, 2-((1r,4S)-4-((4-(5-(2,6-dioxopiperidin-3-yl)pyridin-2-yl)-6-hydroxy-1,4-diazepan-1-yl)methyl)cyclohexyl)-N-(1-((1S,2R)-2-fluorocyclopropyl)-2-oxo-1,2-dihydropyridin-3-yl)-6-isopropoxy-2H-indazole-5-carboxamide], the DC50 in assay [1] was less than 10 nM; in assay [2], greater than 10000 nM.

As to `CC(C)Oc1cc2nn([C@H]3CC[C@H](CN4CC5(CCN(c6ncc(C7CCC(=O)NC7=O)cc6F)CC5)C4)CC3)cc2cc1C(=O)Nc1cccn([C@H]2C[C@H]2F)c1=O` (stereo partly drawn) [Example 121, 2-((1r,4S)-4-((7-(5-(2,6-dioxopiperidin-3-yl)-3-fluoropyridin-2-yl)-2,7-diazaspiro[3.5]nonan-2-yl)methyl)cyclohexyl)-N-(1-((1S,2R)-2-fluorocyclopropyl)-2-oxo-1,2-dihydropyridin-3-yl)-6-isopropoxy-2H-indazole-5-carboxamide], the 50% degradation concentration (DC50) is less than 10 nM in assay [1] and greater than 10000 nM in assay [2].

Consider `CC(C)Oc1cc2nn([C@H]3CC[C@H](CN4CCC(c5ccc6c(c5)n(C)c(=O)n6C5CCC(=O)NC5=O)C(F)(F)C4)CC3)cc2cc1C(=O)Nc1cccn([C@H]2C[C@H]2F)c1=O` (stereo partly drawn) [Example 122, 2-((1r,4S)-4-((4-(1-(2,6-dioxopiperidin-3-yl)-3-methyl-2-oxo-2,3-dihydro-1H-benzo[d]imidazol-5-yl)-3,3-difluoropiperidin-1-yl)methyl)cyclohexyl)-N-(1-((1S,2R)-2-fluorocyclopropyl)-2-oxo-1,2-dihydropyridin-3-yl)-6-isopropoxy-2H-indazole-5-carboxamide], for which the DC50 in assay [1] is less than 10 nM; in assay [2], greater than 10000 nM.

Regarding `CC(C)Oc1cc2nn([C@H]3CC[C@H](CN4CCC(c5ccc6c(c5)n(C)c(=O)n6C5CCC(=O)NC5=O)C(F)(F)C4)CC3)cc2cc1C(=O)Nc1cnn2cccnc12` (stereo partly drawn) [Example 123, 2-((1r,4r)-4-((4-(1-(2,6-dioxopiperidin-3-yl)-3-methyl-2-oxo-2,3-dihydro-1H-benzo[d]imidazol-5-yl)-3,3-difluoropiperidin-1-yl)methyl)cyclohexyl)-6-isopropoxy-N-(pyrazolo[1,5-a]pyrimidin-3-yl)-2H-indazole-5-carboxamide], the 50% degradation concentration (DC50) in assay [1] was less than 10 nM; in assay [2], greater than 10000 nM.

Regarding `CC(C)Oc1cc2nn([C@H]3CC[C@H](CNC4CCN(c5ncc(C6CCC(=O)NC6=O)cc5F)CC4)CC3)cc2cc1C(=O)Nc1cccn(C2CC2)c1=O` (stereo partly drawn) [Example 125, N-(1-cyclopropyl-2-oxo-1,2-dihydropyridin-3-yl)-2-((1r,4r)-4-(((1-(5-(2,6-dioxopiperidin-3-yl)-3-fluoropyridin-2-yl)piperidin-4-yl)amino)methyl)cyclohexyl)-6-isopropoxy-2H-indazole-5-carboxamide], the half-maximal degradation concentration (DC50) in assay [1] was less than 10 nM; in assay [2], greater than 10000 nM.

For `CC(C)Oc1cc2nn([C@H]3CC[C@H](CN4CCOC[C@H]4Cc4ccc(OC5CCC(=O)NC5=O)cc4)CC3)cc2cc1C(=O)Nc1cccn([C@H]2C[C@H]2F)c1=O` (stereo partly drawn) [Example 128, 2-((1R,4S)-4-(((3R)-3-(4-((2,6-dioxopiperidin-3-yl)oxy)benzyl)morpholino)methyl)cyclohexyl)-N-(1-((1S,2R)-2-fluorocyclopropyl)-2-oxo-1,2-dihydropyridin-3-yl)-6-isopropoxy-2H-indazole-5-carboxamide], the figures for the DC50 in assay [1] and in assay [2] were less than 10 nM and greater than 10000 nM, respectively.

Regarding `CC(C)Oc1cc2nn([C@H]3CC[C@H](CN4CC[C@@H](c5ccc6c(C7CCC(=O)NC7=O)nn(C)c6c5)[C@H](O)C4)CC3)cc2cc1C(=O)Nc1cccn([C@H]2C[C@H]2F)c1=O` (stereo partly drawn) [Example 129, 2-((1S,4S)-4-(((3S,4S)-4-(3-(2,6-dioxopiperidin-3-yl)-1-methyl-1H-indazol-6-yl)-3-hydroxypiperidin-1-yl)methyl)cyclohexyl)-N-(1-((1S,2R)-2-fluorocyclopropyl)-2-oxo-1,2-dihydropyridin-3-yl)-6-isopropoxy-2H-indazole-5-carboxamide], the DC50 in assay [1] is less than 10 nM; in assay [2], greater than 10000 nM.

Turning to `CC(C)Oc1cc2nn(C3CCN(C(=O)CC4CCN(c5ccc(C6CCC(=O)NC6=O)cn5)CC4)CC3)cc2cc1C(=O)Nc1cnn2cccnc12` (stereo not drawn) [Example 147, 2-(1-(2-(1-(5-(2,6-dioxopiperidin-3-yl)pyridin-2-yl)piperidin-4-yl)acetyl)piperidin-4-yl)-6-isopropoxy-N-(pyrazolo[1,5-a]pyrimidin-3-yl)-2H-indazole-5-carboxamide], the values for the DC50 in assay [1] and in assay [2] were less than 10 nM and greater than 10000 nM, respectively.

For `CC(C)Oc1cc2nn(C3CCN(C(=O)CC4(O)CCN(c5cnc6c(c5)n(C)c(=O)n6C5CCC(=O)NC5=O)CC4)CC3)cc2cc1C(=O)Nc1cccn([C@H]2C[C@H]2F)c1=O` (stereo partly drawn) [Example 153, 2-(1-(2-(1-(3-(2,6-dioxopiperidin-3-yl)-1-methyl-2-oxo-2,3-dihydro-1H-imidazo[4,5-b]pyridin-6-yl)-4-hydroxypiperidin-4-yl)acetyl)piperidin-4-yl)-N-(1-((1S,2R)-2-fluorocyclopropyl)-2-oxo-1,2-dihydropyridin-3-yl)-6-isopropoxy-2H-indazole-5-carboxamide], the DC50 in assay [1] is 10 to 100 nM; in assay [2], greater than 10000 nM.

Regarding `CC(C)Oc1cc2nc(C3CCN(C(=O)CC4CCN(c5ccc(C6CCC(=O)NC6=O)cn5)CC4)CC3)cn2cc1C(=O)Nc1cnn2cccnc12` (stereo not drawn) [Example 159, 2-(1-(2-(1-(5-(2,6-dioxopiperidin-3-yl)pyridin-2-yl)piperidin-4-yl)acetyl)piperidin-4-yl)-7-isopropoxy-N-(pyrazolo[1,5-a]pyrimidin-3-yl)imidazo[1,2-a]pyridine-6-carboxamide], the 50% degradation concentration (DC50) in assay [1] is less than 10 nM; in assay [2], greater than 10000 nM.

In the case of `CC(C)Oc1cc2nc(C3CCN(C(=O)CC4CCN(c5ncc(C6CCC(=O)NC6=O)cc5F)CC4)CC3)cn2cc1C(=O)Nc1cnn2cccnc12` (stereo not drawn) [Example 162, 2-(1-(2-(1-(5-(2,6-dioxopiperidin-3-yl)-3-fluoropyridin-2-yl)piperidin-4-yl)acetyl)piperidin-4-yl)-7-isopropoxy-N-(pyrazolo[1,5-a]pyrimidin-3-yl)imidazo[1,2-a]pyridine-6-carboxamide], the figures for the 50% degradation concentration (DC50) in assay [1] and in assay [2] were 10 to 100 nM and greater than 10000 nM, respectively.
